We go through two compounds from patent publication US10358672B2, “7-β-hydroxysteroid dehydrogenase mutants and process for the preparation of ursodeoxycholic acid” (Pharmazell GmbH, priority 2014, dated 2019).

Positions count from the first letter of the chain named.

For test [1], the target named is Collinsella aerofaciens 7β-HSDH mutant [T17F] (Collinsella aerofaciens, UniProt A4ECA9, T17F). The class given is biochemical. To be noted: in comparison with the wild type.
In test [2] the target is 7β-HSDH obtainable from Collinsella aerofaciens DSM 3979 (Collinsella aerofaciens, UniProt A4ECA9). To be noted: cited from earlier work.
The target of test [3] is T1, Collinsella aerofaciens 7β-HSDH mutant [R64E], with His tag, SEQ ID NO:4 (Collinsella aerofaciens, UniProt A4ECA9, R64E).
T1 sequence (A4ECA9 with tags, fused parts or gaps R64E): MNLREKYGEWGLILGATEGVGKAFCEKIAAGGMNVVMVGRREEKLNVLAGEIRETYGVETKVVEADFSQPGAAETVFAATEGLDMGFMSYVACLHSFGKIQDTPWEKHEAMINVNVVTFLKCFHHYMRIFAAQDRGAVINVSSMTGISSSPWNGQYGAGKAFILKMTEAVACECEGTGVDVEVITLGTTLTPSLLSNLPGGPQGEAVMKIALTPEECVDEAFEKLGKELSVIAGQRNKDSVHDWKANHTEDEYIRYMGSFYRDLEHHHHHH
The test is described as follows: Michaelis-Menten kinetics, purified 7β-HSDH [R64E]. Particulars: in comparison with the wild type.
From the text: In this manner, all the enzymes have been isolated and characterized.
The His-tag allows for very simple purification of the HSDH protein since this sequence is bound with high specificity by specific chromatographic material (NTA (Ninitrilotriacetate)-modified support material, loaded with divalent nickel ions, for example “His Pur Ni-NTA” (Nimagen B. V., Nijmegen, The Netherlands)). To this end, the cell-free crude extract is applied to a dropping column comprising this material, which dropping column has previously been equilibrated with the disruption buffer (3 to 5 column volumes). Weakly binding protein was removed by washing with 3 to 5 column volumes of wash buffer (20 mM imidazole, 50 mM sodium phosphate, 300 mM NaCl, pH 8). […] The process was carried out at room temperature. The imidazole which was present was to be removed by buffer exchange.
(§1) The activity of the 7β-HSDH and of the mutants was determined using a photometric assay, where the decrease in absorbance was measured at 340 nm over a period of 30 seconds.

Test [4] has as its target T2, Collinsella aerofaciens 7β-HSDH mutant [G39S], with His tag, SEQ ID NO:5 (Collinsella aerofaciens, UniProt A4ECA9, G39S).
T2 sequence (A4ECA9 with tags, fused parts or gaps G39S): T1 sequence (A4ECA9 with tags, fused parts or gaps R64E) with G39S, E64R
The test is described as follows: Michaelis-Menten kinetics, purified 7β-HSDH [G39S]. Particulars: in comparison with the wild type.
Method: as §1
The kinetic parameter constants vmax and KM were determined with purified enzyme.

For test [5], the target named is T3, Collinsella aerofaciens 7β-HSDH dual mutant [G39S/R64E], with His tag, SEQ ID NO:6 (Collinsella aerofaciens, UniProt A4ECA9, G39S/R64E).
T3 sequence (A4ECA9 with tags, fused parts or gaps G39S/R64E): T1 sequence (A4ECA9 with tags, fused parts or gaps R64E) with G39S
The test is described as follows: Michaelis-Menten kinetics, purified 7β-HSDH [G39S/R64E].
Method: as §1

The test system of test [6] is Collinsella aerofaciens DSM 3979 (ATCC 25986) 7β-HSDH, wild type, SEQ ID NO:2. To be noted: cited from earlier work.

7β-HSDH obtainable from Collinsella aerofaciens DSM 3979, sequence (A4ECA9 whole entry): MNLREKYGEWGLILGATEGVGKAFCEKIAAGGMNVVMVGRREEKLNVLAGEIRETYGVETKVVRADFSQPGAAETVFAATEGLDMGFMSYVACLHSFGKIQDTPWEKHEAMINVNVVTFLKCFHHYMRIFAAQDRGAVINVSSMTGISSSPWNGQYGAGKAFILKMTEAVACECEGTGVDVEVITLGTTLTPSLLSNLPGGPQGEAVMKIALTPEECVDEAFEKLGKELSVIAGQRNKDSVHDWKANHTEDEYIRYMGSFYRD
Collinsella aerofaciens 7β-HSDH mutant [T17F], sequence (A4ECA9 1-263 with tags or gaps T17F): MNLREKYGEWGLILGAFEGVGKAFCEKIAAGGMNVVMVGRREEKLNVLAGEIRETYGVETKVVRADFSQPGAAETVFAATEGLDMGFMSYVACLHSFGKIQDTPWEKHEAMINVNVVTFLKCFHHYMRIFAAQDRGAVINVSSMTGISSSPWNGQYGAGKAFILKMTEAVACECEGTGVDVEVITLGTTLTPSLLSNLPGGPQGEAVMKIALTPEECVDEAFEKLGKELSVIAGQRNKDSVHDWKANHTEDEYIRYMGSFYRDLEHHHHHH

`C[C@H](CCC(=O)O)[C@H]1CC[C@H]2[C@@H]3C(=O)C[C@@H]4CC(=O)CC[C@]4(C)[C@H]3CC(=O)[C@]12C` [DHCA, dehydrocholic acid]: the “Vmax (DHCA), improvement” value is reported as “+5-fold better” in test [1], “+5-fold better” in test [3], “+6-fold better” in test [4] and “+7-fold better” in test [5] (in comparison with the wild type). In addition, the kcat in test [2] is recorded as 875.35. In addition, the “Substrate inhibition Ki” value was “+reduced” in test [3] (in words); “+reduced” in test [4] (in words); “++eliminated” in test [5] (in words, in comparison with the wild type). In test [5] (in words, course of kinetics in FIG. 6), the substrate inhibition result was “no longer demonstrates a substrate inhibition”.
In the case of `NC(=O)c1ccc[n+]([C@@H]2O[C@H](COP(=O)([O-])OP(=O)(O)OC[C@H]3O[C@@H](n4cnc5c(N)ncnc54)[C@H](OP(=O)(O)O)[C@@H]3O)[C@@H](O)[C@H]2O)c1` [NADP^+], in test [2], the Vmax is 30.58 U/mg Protein and the kcat is 944.95. In addition, the kcat in test [6] is listed as 944.95.
